{
  "source": "patent US6797698B1",
  "about": "“Method of treating prolonged critical illness and other conditions having a similar neuroendocrine pattern” (K.U. Leuven Research & Development, priority 1998, dated 2004)",
  "key": {"catabolism": {"test_system": "catabolism", "test": "LHRH effect on catabolism resulting from testosterone deficiency", "settings": "in vivo", "description": "Optionally the administration of GHRP and TRH can be supplemented with Luteinizing Hormone Releasing Hormone (LHRH). A shortage of pulsatile LH secretion can lead to testosterone deficiency in males, which in turn can cause an increase in catabolism."}, "[1]": {"test_system": "TSH secretion and thyroid hormone levels", "test": "21 h (21-45 h) infusion in protracted critical illness: TSH secretion and thyroid hormones", "assay_type": "in vivo, human", "settings": "21 h infusion"}, "[2]": {"test_system": "GH secretion and GH-dependent parameters", "test": "21 h (21-45 h) infusion in protracted critical illness: GH secretion and GH-dependent parameters", "assay_type": "in vivo, human", "method": "The inventors have also shown that infusion of GHRP-2 for 21 h in this condition increases pulsatile GH secretion >6-fold, associated with increases in IGF-I, IGFBP-3 and ALS. […] This observation strongly favors the presence of active feedback inhibition preventing overcorrection of the somatotropic axis with this strategy. Treatment with high doses of recombinant human GH has recently shown to increase morbidity and mortality of critical illness. The inability to overtreat with GH-secretagogues is an important advantage over exogenous GH, especially in the vulnerable critically ill elderly."}},
  "data": [
    {"molecule": "Luteinizing Hormone Releasing Hormone (QHWSYGLRPG; Gonadoliberin-1; UniProt P01148 24-33, looked up) [LHRH, Luteinizing Hormone Releasing Hormone, optional supplement to GHRP and TRH]", "values": [
      {"measurement": "effect on catabolism that results from testosterone deficiency (in words)", "setting": "catabolism", "value": "no effect"}
    ]},
    {"molecule": "NC(=O)[C@@H]1CCCN1C(=O)[C@H](Cc1cnc[nH]1)NC(=O)[C@@H]1CCC(=O)N1", "note": "[TRH, Thyroid Releasing Hormone]", "values": [
      {"measurement": "TSH secretion (in words)", "setting": "[1]", "value": "increasing"},
      {"measurement": "thyroid hormone levels (in words)", "setting": "[1]", "value": "increasing"},
      {"measurement": "GH-dependent parameters (in words)", "setting": "[2]; 21 h infusion", "value": "did not alter"}
    ]},
    {"molecule": "GHRP-2", "values": [
      {"measurement": "ALS (in words)", "setting": "[2]; infusion for 21 h", "value": "increases"},
      {"measurement": "IGF-I (in words)", "setting": "[2]; infusion for 21 h", "value": "increases"},
      {"measurement": "IGFBP-3 (in words)", "setting": "[2]; infusion for 21 h", "value": "increases"},
      {"measurement": "increase in pulsatile GH secretion", "setting": "[2]; infusion for 21 h", "value": "> 6", "unit": "fold"}
    ]}
  ]
}
